The assay has as its target T1, EP4 (Homo sapiens, UniProt P35408).
T1 construct: expressed in transfected cells; membranes prepared by differential centrifugation
The assay is described as follows: Prostanoid receptor binding assay (radioligand displacement binding assay). How it is done:
Prostanoid receptor cDNAs corresponding to full length coding sequences are subcloned into the appropriate sites of mammalian expression vectors and transfected into HEK 293(ebna) cells. HEK 293(ebna) cells expressing the individual cDNAs are grown under selection and individual colonies are isolated after 2-3 weeks of growth using the cloning ring method and subsequently expanded into clonal cell lines.
Transfected HEK 293(ebna) cells are maintained in culture, harvested and membranes are prepared by differential centrifugation, following lysis of the cells in the presence of protease inhibitors, for use in receptor binding assays. Prostanoid receptor binding assays (for DP1, DP2 (CRTH2), EP1, EP2, EP3-III, EP4, FP, IP, and TP) are performed in 10 mM MES/KOH (pH 6.0) (EPs, FP and TP) or 10 mM HEPES/KOH (pH 7.4) (DPs and IP), containing 1 mM EDTA, 2.5-30 mM divalent cation and the appropriate radio-ligand. Synthetic compounds are added in DMSO which is kept constant at 1% (v/v) in all incubations. The reaction is initiated by addition of membrane protein. Non-specific binding is determined in the presence of 10 μM of the corresponding non-radioactive prostanoid. Incubations are conducted for 60-120 min at room temperature or 30° C. and terminated by rapid filtration. Specific binding is calculated by subtracting non specific binding from total binding. The residual specific binding at each ligand concentration is calculated and expressed as a function of ligand concentration in order to construct sigmoidal concentration-response curves. The binding affinity of the compounds is determined by calculating the equilibrium inhibition constant (Ki) from the equation Ki=InPt/1+[radio-ligand]/Kd where Kd is the equilibrium dissociation constant for the radio-ligand:receptor interaction and InPt is the inflection point of the dose-response curves.
Abramovitz, M. et al., Biochem, Biophys. Acta, 2000, 1483, pp. 285.
(Displacement assays read how much labelled ligand stays bound in the presence of the test substance.)

Setting [1] is: column marked X when IC50 < 1, read-out: IC50 (nm) X < 1.

Where two headings read alike, the source gives them in different places.

T1 sequence (P35408 whole entry): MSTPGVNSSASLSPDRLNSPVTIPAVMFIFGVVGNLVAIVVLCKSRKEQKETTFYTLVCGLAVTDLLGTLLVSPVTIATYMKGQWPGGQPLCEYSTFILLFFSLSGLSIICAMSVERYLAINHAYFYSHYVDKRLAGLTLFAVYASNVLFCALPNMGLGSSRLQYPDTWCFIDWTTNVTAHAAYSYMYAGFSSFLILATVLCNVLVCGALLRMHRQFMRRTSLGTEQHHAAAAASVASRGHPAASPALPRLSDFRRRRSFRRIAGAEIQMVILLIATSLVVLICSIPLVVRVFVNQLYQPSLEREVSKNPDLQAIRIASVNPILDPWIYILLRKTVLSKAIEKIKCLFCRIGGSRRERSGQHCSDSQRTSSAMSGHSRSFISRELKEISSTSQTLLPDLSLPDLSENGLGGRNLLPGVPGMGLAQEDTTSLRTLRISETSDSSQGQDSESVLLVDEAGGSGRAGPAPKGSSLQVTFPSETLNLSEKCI

With `CN1CCc2c(n(-c3ccc(CCNC(=O)NS(=O)(=O)c4ccc(Cl)cc4)cc3)c3c(Cl)cccc23)C1=O` [Example 1-20, 4-chloro-N-[({2-[4-(8-chloro-2-methyl-1-oxo-1,2,3,4-tetrahydro-9H-beta-carbolin-9-yl)phenyl]ethyl}amino)carbonyl]benzenesulfonamide], the IC50 (as a rule, the concentration that gives 50% inhibition) is above 5 nM (column marked X when IC50 > 5, read-out: IC50 (nm) X > 5) and above 5 nM (radioligand displacement binding assay, read-out: IC50).

`CN1CCc2c(n(-c3ccc(CCNC(=O)NS(=O)(=O)c4ccc(Cl)cc4)cc3)c3ccc(-c4cccnc4)cc23)C1=O` [Example 1-21, 4-chloro-N-[({2-[4-(2-methyl-1-oxo-6-pyridin-3-yl-1,2,3,4-tetrahydro-9H-beta-carbolin-9-yl)phenyl]ethyl}amino)carbonyl]benzenesulfonamide]: under setting [1], the half-maximal inhibitory concentration (IC50) was below 1 nM.

Take `CN1CCc2c(n(-c3ccc(CCNC(=O)NS(=O)(=O)c4ccc(Cl)cc4)cc3)c3ccc(-c4ccccn4)cc23)C1=O` [Example 1-22, 4-chloro-N-[({2-[4-(2-methyl-1-oxo-6-pyridin-2-yl-1,2,3,4-tetrahydro-9H-beta-carbolin-9-yl)phenyl]ethyl}amino)carbonyl]benzenesulfonamide]: under setting [1], the half-maximal inhibitory concentration (IC50) was below 1 nM.

For `CN1CCc2c(n(-c3ccc(CC4(NC(=O)NS(=O)(=O)c5ccc(Cl)cc5)CC4)cc3)c3ccc(-c4ccccc4F)cc23)C1=O` [Example 1-23, 4-chloro-N-{[(1-{4-[6-(2-fluorophenyl)-2-methyl-1-oxo-1,2,3,4-tetrahydro-9H-beta-carbolin-9-yl]benzyl}cyclopropyl)amino]carbonyl}benzenesulfonamide], the 50% inhibitory concentration (IC50) under setting [1] was below 1 nM.

Consider `CN1CCc2c(n(-c3ccc(CC4(NC(=O)NS(=O)(=O)c5ccc(Cl)cc5)CC4)cc3)c3ccc(-c4cccnc4)cc23)C1=O` [Example 1-24, 4-chloro-N-[({1-[4-(2-methyl-1-oxo-6-pyridin-3-yl-1,2,3,4-tetrahydro-9H-beta-carbolin-9-yl)benzyl]cyclopropyl}amino)carbonyl]benzenesulfonamide], for which, under setting [1], the IC50 was below 1 nM.

In the case of `CN1CCc2c(n(-c3ccc(CC4(NC(=O)NS(=O)(=O)c5ccc(Cl)cc5)CC4)cc3)c3ccc(-c4ccsc4)cc23)C1=O` [Example 1-25, 4-chloro-N-{[(1-{4-[2-methyl-1-oxo-6-(3-thienyl)-1,2,3,4-tetrahydro-9H-beta-carbolin-9-yl]benzyl}cyclopropyl)amino]carbonyl}benzenesulfonamide], the IC50 under setting [1] is below 1 nM.

On to `CN1CCc2c(n(-c3ccc(CC4(NC(=O)NS(=O)(=O)c5ccc(Cl)cc5)CC4)cc3)c3ccc(-c4ccccn4)cc23)C1=O` [Example 1-26, 4-chloro-N-[({1-[4-(2-methyl-1-oxo-6-pyridin-2-yl-1,2,3,4-tetrahydro-9H-beta-carbolin-9-yl)benzyl]cyclopropyl}amino)carbonyl]benzenesulfonamide], for which the concentration for half-maximal inhibition (IC50) under setting [1] is below 1 nM.

Consider `Cc1ccccc1-c1ccc2c(c1)c1c(n2-c2ccc(CC3(NC(=O)NS(=O)(=O)c4ccc(Cl)cc4)CC3)cc2)C(=O)N(C)CC1` [Example 1-27, 4-chloro-N-{[(1-{4-[2-methyl-6-(2-methylphenyl)-1-oxo-1,2,3,4-tetrahydro-9H-beta-carbolin-9-yl]benzyl}cyclopropyl)amino]carbonyl}benzenesulfonamide], for which the IC50 under setting [1] was below 1 nM.

With `Cc1cc(C)c2c3c(n(-c4ccc(CC5(NC(=O)NS(=O)(=O)c6ccc(Cl)cc6)CC5)cc4)c2c1)C(=O)N(C)CC3` [Example 1-28, 4-chloro-N-[({1-[4-(2,5,7-trimethyl-1-oxo-1,2,3,4-tetrahydro-9H-beta-carbolin-9-yl)benzyl]cyclopropyl}amino)carbonyl]benzenesulfonamide], the IC50 under setting [1] was below 1 nM.

Regarding `CN1CCc2c(n(-c3ccc(CC4(NC(=O)NS(=O)(=O)c5c(Cl)cccc5Cl)CC4)cc3)c3ccc(-c4ccccc4)cc23)C1=O` [Example 1-29, 2,6-dichloro-N-[({1-[4-(2-methyl-1-oxo-6-phenyl-1,2,3,4-tetrahydro-9H-beta-carbolin-9-yl)benzyl]cyclopropyl}amino)carbonyl]benzenesulfonamide], the 50% inhibitory concentration (IC50) under setting [1] is below 1 nM.

Values taken from US8685999B2, “Beta carboline sulphonylurea derivatives as EP4 receptor antagonists” (Merck Sharp & Dohme Corp., priority 2008, dated 2014).
